Drawing on patent publication US12473295B2, “Substituted straight chain spiro derivatives” (Janssen Pharmaceutica NV, priority 2019, dated 2025), this text covers IC50 for 16 compounds.

The target of experiment [1] is menin/MLL (terbium chelate-labeled menin, FITC-MBM1 peptide) (Homo sapiens (Human), UniProt O00255). Nature of the experiment: Menin/MLL homogenous time-resolved fluorescence (HTRF) assay.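 Further: IC50 from percent inhibition of HTRF signal, normalized between wells without competitor and wells with a saturating competitor that displaces FITC-MBM1 from His-tagged menin.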 Format: binding. In general terms: TR-FRET usually uses a lanthanide donor and a delayed reading to cut background.
The test system of experiment [2] is MOLM14 cells. Nature of the experiment: Proliferation assay (spheroid growth, 8 days), MOLM14.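 Further: spheroid size read as confluence by live-cell imaging, compounds added at a range of concentrations with 0.3% DMSO, DMSO-treated wells = 0%, highest reference dose = low control.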 The class given is cell-based, human. The following applies: MOLM14, 8 days, read-out: spheroid assay_OneTime MOLM14 IC50.
Experiment [3] relates to KO-52 cells. Nature of the experiment: Proliferation assay (spheroid growth, 8 days), KO-52 control cell line. The following applies: Homo sapiens, […], read-out: spheroid assay_OneTime KO-52 IC50. Format: cell-based, human. Here is the method: (§1) The anti-proliferative effect of menin/MLL protein/protein interaction inhibitor test compounds was assessed in human leukemia cell lines. The cell line MOLM14 harbors a MLL translocation and expresses the MLL fusion protein MLL-AF9, respectively, as well as the wildtype protein from the second allele. OCI-AML3 cells that carry the NPM1c gene mutation were also tested. […] KO-52 was used as a control cell line containing two MLL (KMT2A) wildtype alleles in order to exclude compounds that display general cytotoxic effects.
(§2) KO-52 and OCI-AML3 cell lines were propagated in alpha-MEM (Sigma Aldrich) supplemented with 20% heat-inactivated fetal bovine serum (HyClone), 2 mM L-glutamine (Sigma Aldrich) and 50 μg/ml gentamycin (Gibco).
(§3) In order to assess the anti-proliferative effects, 200 MOLM14 cells, 200 OCI-AML3 cells or 300 KO-52 cells were seeded in 200 μl media per well in […] round bottom, ultra-low attachment plates (Costar, catalogue number 7007). Cell seeding numbers were chosen based on growth curves to ensure linear growth throughout the experiment. Test compounds were added at different concentrations and the DMSO content was normalized to 0.3%. Cells were incubated for 8 days at 37° C. and 5% CO2. Spheroid like growth was measured in real-time by live-cell imaging (IncuCyteZOOM, Essenbio, 4× objective) acquiring images at day 8. Confluence (%) as a measure of spheroid size was determined using an integrated analysis tool.
(§4) In order to determine the effect of the test compounds over time, the confluence in each well as a measure of spheroid size, was calculated. Confluence of the highest dose of a reference compound was used as baseline for the LC (Low control) and the confluence of DMSO treated cells was used as 0% cytotoxicity (High Control, HC).
(§5) GraphPad Prism(version 7.00) was used to calculate the IC50. Dose-response equation was used for the plot of % Effect vs Log 10 compound concentration with a variable slope and fixing the maximum to 100% and the minimum to 0%.

Experiment [4] has as its system MEIS1 mRNA. Description: MEIS1 mRNA expression assay (Quantigene Singleplex) in MOLM14 cells.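 Further: MEIS1 transcript levels read by probe hybridization and normalized to RPL28 mRNA, with IC50 fitted to fold changes across a rising compound concentration series.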 The class given is cell-based, human. The following applies: 48 hours incubation.
Experiment [5] has as its system OCI-AML3 cells. Nature of the experiment: Proliferation assay (spheroid growth, 8 days), OCI-AML3. The class given is cell-based, human. The following applies: OCI-AML3, 8 days. Here is the method:
as §1, §2, §3, §4, §5

The mark [6] stands for this setting: HTRF-30 min incubation IC50, 30 min incubation.

Where a name gives a salt, the structure may show the parent alone. Read-outs that look alike come from different tables or passages of the source.

Sequence of menin/MLL (terbium chelate-labeled menin, FITC-MBM1 peptide) (O00255 other isoform, or with tags, fused parts or gaps): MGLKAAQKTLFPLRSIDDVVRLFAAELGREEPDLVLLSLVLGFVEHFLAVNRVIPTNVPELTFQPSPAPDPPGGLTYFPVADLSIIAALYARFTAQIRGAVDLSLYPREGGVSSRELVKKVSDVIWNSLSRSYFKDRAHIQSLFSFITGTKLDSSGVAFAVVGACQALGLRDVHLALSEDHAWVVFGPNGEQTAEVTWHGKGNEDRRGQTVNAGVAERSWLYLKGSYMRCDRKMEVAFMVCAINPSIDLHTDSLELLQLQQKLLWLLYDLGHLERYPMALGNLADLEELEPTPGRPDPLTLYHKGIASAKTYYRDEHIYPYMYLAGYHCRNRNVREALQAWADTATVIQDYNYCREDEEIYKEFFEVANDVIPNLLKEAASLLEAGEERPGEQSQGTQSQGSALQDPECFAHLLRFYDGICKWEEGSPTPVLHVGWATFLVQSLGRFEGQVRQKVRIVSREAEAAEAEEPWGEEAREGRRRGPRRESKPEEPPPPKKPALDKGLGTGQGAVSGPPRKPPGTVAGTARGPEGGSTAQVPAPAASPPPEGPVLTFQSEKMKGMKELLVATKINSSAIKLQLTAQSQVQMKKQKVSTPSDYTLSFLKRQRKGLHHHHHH

For orientation: IC50 means the concentration that inhibits the measured activity by half. On to `CC(C)[C@H](CCC(N)=O)N1CC2(CCN(c3ncnnc3Oc3ccc(F)cc3-c3cncnc3C3CC3)C2)C1` (single isomer, unassigned) [Compound 44], for which the IC50 was 46.6 nM in experiment [1] (setting [6]); greater than 3750 nM in experiment [2] (Homo sapiens, MOLM-14, […]); greater than 15000 nM in experiment [3]; greater than 2500 nM in experiment [4] (Homo sapiens, MOLM-14, 48 h).

On to `CCN(C(=O)c1cc(F)ccc1Oc1nncnc1N1CCC2(C1)CN([C@@H](CCCNC(C)=O)C(C)C)C2)C(C)C` [Compound 7, (S)-2-((5-(2-(6-acetamido-2-methylhexan-3-yl)-2,6-diazaspiro[3.4]octan-6-yl)-1,2,4-triazin-6-yl)oxy)-N-ethyl-5-fluoro-N-isopropylbenzamide], for which the IC50 in experiment [1] (setting [6]) is 86.2 nM; in experiment [2] (Homo sapiens, MOLM-14, […]) it was greater than 3750 nM; in experiment [3] it was greater than 15000 nM; in experiment [4] (Homo sapiens, MOLM-14, 48 h) it was greater than 2500 nM.

For `CCN(C(=O)c1cc(F)ccc1Oc1nnc(C)nc1N1CCC2(C1)CN([C@H](CCCN)C(C)C)C2)C(C)C` [Compound 413, (R)-2-((5-(2-(6-amino-2-methylhexan-3-yl)-2,6-diazaspiro[3.4]octan-6-yl)-3-methyl-1,2,4-triazin-6-yl)oxy)-N-ethyl-5-fluoro-N-isopropylbenzamide formate], the IC50 is 0.051 nM in experiment [1] (setting [6]); 720 nM in experiment [2] (Homo sapiens, MOLM-14, […]); 1490 nM in experiment [5] (Homo sapiens, OCI-AML-3, […]); roughly 590 nM in experiment [4] (Homo sapiens, MOLM-14, 48 h).

As to `CCN(C(=O)c1cc(F)ccc1Oc1nncnc1N1CCC2(C1)CN([C@@H](CCCNC(=O)NC)C(C)C)C2)C(C)C` [Compound 9, (S)—N-ethyl-5-fluoro-N-isopropyl-2-((5-(2-(2-methyl-6-(3-methylureido)hexan-3-yl)-2,6-diazaspiro[3.4]octan-6-yl)-1,2,4-triazin-6-yl)oxy)benzamide], the IC50 in experiment [1] (setting [6]) is 44.7 nM; in experiment [2] (Homo sapiens, MOLM-14, […]) it was greater than 3750 nM; in experiment [3], greater than 15000 nM.

On to `CCN(C(=O)c1cc(F)ccc1Oc1nncnc1N1CCC2(C1)CN([C@H](CCN(C)CC(N)=O)C(C)C)C2)C(C)C` (single isomer, unassigned) [Compound 231, (*R)-2-((5-(2-(1-amino-2-oxoethyl)(methyl)amino)-4-methylpentan-3-yl)-2,6-diazaspiro[3.4]octan-6-yl)-1,2,4-triazin-6-yl)oxy)-N-ethyl-5-fluoro-N-isopropylbenzamide], for which the IC50 is 1.77 nM in experiment [1] (setting [6]); 790 nM in experiment [2] (Homo sapiens, MOLM-14, […]); 1800 nM in experiment [5] (Homo sapiens, OCI-AML-3, […]); roughly 560 nM in experiment [4] (Homo sapiens, MOLM-14, 48 h).

For `CCN(C(=O)c1cc(F)ccc1Oc1nnc(Cl)nc1N1CCC2(C1)CN([C@H](CCCN)C(C)C)C2)C(C)C` [Compound 406, (R)-2-((5-(2-(6-amino-2-methylhexan-3-yl)-2,6-diazaspiro[3.4]octan-6-yl)-3-chloro-1,2,4-triazin-6-yl)oxy)-N-ethyl-5-fluoro-N-isopropylbenzamide formate], the IC50 in experiment [1] (setting [6]) came to 0.033 nM; in experiment [2] (Homo sapiens, MOLM-14, […]), 220 nM; in experiment [5] (Homo sapiens, OCI-AML-3, […]) it was 490 nM; in experiment [4] (Homo sapiens, MOLM-14, 48 h) it was 130 nM.

For the compound `CCN(C(=O)c1cc(F)ccc1Oc1nnc(OC)nc1N1CCC2(C1)CN([C@H](CCCN(C)C)C(C)C)C2)C(C)C` [Compound 410, (R)-2-((5-(2-(6-(dimethylamino)-2-methylhexan-3-yl)-2,6-diazaspiro[3.4]octan-6-yl)-3-methoxy-1,2,4-triazin-6-yl)oxy)-N-ethyl-5-fluoro-N-isopropylbenzamide formate], the 50% inhibitory concentration (IC50) worked out at 0.12 nM in experiment [1] (setting [6]); 160 nM in experiment [2] (Homo sapiens, MOLM-14, […]); 380 nM in experiment [5] (Homo sapiens, OCI-AML-3, […]); 120 nM in experiment [4] (Homo sapiens, MOLM-14, 48 h).

As to `CCN(C(=O)c1cc(F)ccc1Oc1nncnc1N1CCC2(C1)CN([C@@H](CCO)C(C)C)C2)C(C)C` (single isomer, unassigned) [Compound 215, (*S)—N-ethyl-5-fluoro-2-((5-(2-(1-hydroxy-4-methylpentan-3-yl)-2,6-diazaspiro[3.4]octan-6-yl)-1,2,4-triazin-6-yl)oxy)-N-isopropylbenzamide], the IC50 in experiment [1] (read-out: HTRF-30 min incubation IC50, 30 min incubation) was 88.8 nM; in experiment [2], 1490 nM; in experiment [5], 9240 nM; in experiment [4] it was greater than 1000 nM.

Turning to `CCN(C(=O)c1cc(F)ccc1Oc1nncnc1N1CCC2(C1)CN([C@@H](C[C@@H](C)CN(C)CCOC)C(C)C)C2)C(C)C` (single isomer, unassigned) [Compound 241, N-ethyl-5-fluoro-N-isopropyl-2-((5-(2-((3*S,5*R)-6-((2-methoxyethyl)(methyl)amino)-2,5-dimethylhexan-3-yl)-2,6-diazaspiro[3.4]octan-6-yl)-1,2,4-triazin-6-yl)oxy)benzamide fumarate], the IC50 in experiment [1] (setting [6]) came to 1.36 nM; in experiment [2] (Homo sapiens, MOLM-14, […]), 180 nM; in experiment [5] (Homo sapiens, OCI-AML-3, […]), 1120 nM; in experiment [4] (Homo sapiens, MOLM-14, 48 h), 280 nM.

Consider `CCN(C(=O)c1cc(F)ccc1Oc1nncnc1N1CCC2(C1)CN([C@@H](CCN(C)C)C(C)C)C2)C(C)C` (single isomer, unassigned) [Compound 225, (*S)-2-((5-(2-(1-(dimethylamino)-4-methylpentan-3-yl)-2,6-diazaspiro[3.4]octan-6-yl)-1,2,4-triazin-6-yl)oxy)-N-ethyl-5-fluoro-N-isopropylbenzamide fumarate], for which the IC50 in experiment [1] (setting [6]) is 8.31 nM; in experiment [2] (Homo sapiens, MOLM-14, […]), greater than 940 nM; in experiment [5] (Homo sapiens, OCI-AML-3, […]), 7090 nM; in experiment [4] (Homo sapiens, MOLM-14, 48 h) it was greater than 1000 nM.

For the compound `CCN(C(=O)c1cc(F)ccc1Oc1nncnc1N1CC2(CCN(C(CCCN(C)CCOC)C(C)C)C2)C1)C(C)C` (stereo not shown) [Compound 302, N-ethyl-5-fluoro-N-isopropyl-2-((5-(6-(6-((2-methoxyethyl)(methyl)amino)-2-methylhexan-3-yl)-2,6-diazaspiro[3.4]octan-2-yl)-1,2,4-triazin-6-yl)oxy)benzamide fumarate], the IC50 in experiment [1] (setting [6]) stood at 0.26 nM; in experiment [2] (Homo sapiens, MOLM-14, […]), 97 nM; in experiment [5] (Homo sapiens, OCI-AML-3, […]), 770 nM; in experiment [4] (Homo sapiens, MOLM-14, 48 h), 160 nM.

In the case of `CCN(C(=O)c1cc(F)ccc1Oc1nnc(NC)nc1N1CCC2(C1)CN([C@H](CCCN(C)CCOC)C(C)C)C2)C(C)C` [Compound 395, (R)-N-ethyl-5-fluoro-N-isopropyl-2-((5-(2-(6-((2-methoxyethyl)(methyl)amino)-2-methylhexan-3-yl)-2,6-diazaspiro[3.4]octan-6-yl)-3-(methylamino)-1,2,4-triazin-6-yl)oxy)benzamide formate], the concentration for half-maximal inhibition (IC50) in experiment [1] (setting [6]) stood at 0.2 nM; in experiment [2] (Homo sapiens, MOLM-14, […]) it was 56 nM; in experiment [5] (Homo sapiens, OCI-AML-3, […]), 280 nM; in experiment [4] (Homo sapiens, MOLM-14, 48 h), 140 nM.

In the case of `CCN(C)C[C@H](O)C[C@@H](C(C)C)N1CC2(CCN(c3ncnnc3Oc3ccc(F)cc3C(=O)N(CC)C(C)C)C2)C1` (relative stereo) [Compound 347, N-ethyl-2-((5-(2-((3*S,5R)-6-(ethyl(methyl)amino)-5-hydroxy-2-methylhexan-3-yl)-2,6-diazaspiro[3.4]octan-6-yl)-1,2,4-triazin-6-yl)oxy)-5-fluoro-N-isopropylbenzamide formate], the IC50 was 12 nM in experiment [1] (setting [6]); greater than 940 nM in experiment [2] (Homo sapiens, MOLM-14, […]); 4980 nM in experiment [5] (Homo sapiens, OCI-AML-3, […]); greater than 1000 nM in experiment [4] (Homo sapiens, MOLM-14, 48 h).

For `CCN(C(=O)c1cc(F)ccc1Oc1nncnc1N1CCC2(C1)CN([C@@H](CCCNC)C(C)C)C2)C(C)C` [Compound 20, (S)—N-ethyl-5-fluoro-N-isopropyl-2-((5-(2-(2-methyl-6-(methylamino)hexan-3-yl)-2,6-diazaspiro[3.4]octan-6-yl)-1,2,4-triazin-6-yl)oxy)benzamide hydrochloride], the half-inhibitory concentration (IC50) in experiment [2] (Homo sapiens, MOLM-14, […]) was greater than 940 nM; in experiment [3] it was greater than 15000 nM.

In the case of `CCN(C(=O)c1cc(F)ccc1Oc1nnc(NC)nc1N1CCC2(C1)CN([C@H](CCCN)C(C)C)C2)C(C)C` [Compound 409, (R)-2-((5-(2-(6-amino-2-methylhexan-3-yl)-2,6-diazaspiro[3.4]octan-6-yl)-3-(methylamino)-1,2,4-triazin-6-yl)oxy)-N-ethyl-5-fluoro-N-isopropylbenzamide hydrochloride], the IC50 in experiment [1] (setting [6]) was 0.12 nM; in experiment [2] (Homo sapiens, MOLM-14, […]) it was 640 nM; in experiment [5] (Homo sapiens, OCI-AML-3, […]) it was 1850 nM; in experiment [4] (Homo sapiens, MOLM-14, 48 h) it was roughly 440 nM.

On to `CCN(C(=O)c1cc(F)ccc1Oc1nnc(Cl)nc1N1CCC2(C1)CN([C@H](CCCN(C)C)C(C)C)C2)C(C)C` [Compound 411, (R)-2-((3-chloro-5-(2-(6-(dimethylamino)-2-methylhexan-3-yl)-2,6-diazaspiro[3.4]octan-6-yl)-1,2,4-triazin-6-yl)oxy)-N-ethyl-5-fluoro-N-isopropylbenzamide formate], for which the IC50 in experiment [1] (setting [6]) was 0.33 nM; in experiment [2] (Homo sapiens, MOLM-14, […]), 210 nM; in experiment [5] (Homo sapiens, OCI-AML-3, […]) it was 680 nM; in experiment [4] (Homo sapiens, MOLM-14, 48 h), 110 nM.
